Converted amounts (≈) assume the structure as drawn.
Tests used:
[1] = tested on: Staphylococcus aureus; assay: Antibacterial activity against methicillin-resistant Staphylococcus aureus USA 300 LAC after 20 hrs by CLSI broth microdilution method; type: functional
[2] = tested on: Staphylococcus aureus; assay: Antibacterial activity against methicillin-resistant Staphylococcus aureus Mu50 ATCC 700699 after 20 hrs by CLSI broth microdilution method; type: functional
[3] = tested on: Staphylococcus aureus; assay: Antibacterial activity against methicillin-resistant Staphylococcus aureus XJ 75302 after 20 hrs by CLSI broth microdilution method; type: functional
[4] = tested on: Staphylococcus aureus; assay: Antibacterial activity against Staphylococcus aureus ATCC 29213 after 20 hrs by CLSI broth microdilution method; type: functional
[5] = Cytotoxicity against human HuTu 80 cells after 48 hrs by MTT assay; type: functional, cell-based; settings: HuTu80, 48 h
[6] = Cytotoxicity against human PANC1 cells after 48 hrs by MTT assay; type: functional, cell-based; settings: PANC-1, 48 h
[7] = tested on: 4T1; assay: Cytotoxicity against mouse 4T1 cells after 48 hrs by MTT assay; type: functional, cell-based; settings: 4T1, 48 h
[8] = tested on: 4T1; assay: Induction of apoptosis in mouse 4T1 cells assessed as viable cells at 5 ug/ml after 48 hrs by Annexin V/Alexa Fuor 488/PI-staining based flow cytometric analysis (Rvb= 91.7%); type: functional; settings: 4T1, 48 h, read-out: Activity
[9] = tested on: 4T1; assay: Induction of apoptosis in mouse 4T1 cells assessed as necrotic cells at 5 ug/ml after 48 hrs by Annexin V/Alexa Fuor 488/PI-staining based flow cytometric analysis (Rvb=0.5%); type: functional
[10] = tested on: 4T1; assay: Induction of apoptosis in mouse 4T1 cells assessed as late apoptotic cells at 5 ug/ml after 48 hrs by Annexin V/Alexa Fuor 488/PI-staining based flow cytometric analysis (Rvb=3.5%); type: functional
[11] = tested on: 4T1; assay: Induction of apoptosis in mouse 4T1 cells assessed as increase in early and late apoptotic cells at 5 ug/ml after 48 hrs by Annexin V/Alexa Fuor 488/PI-staining based flow cytometric analysis relative to vehicle control; type: functional
[12] = tested on: 4T1; assay: Induction of apoptosis in mouse 4T1 cells assessed as early apoptotic cells at 5 ug/ml after 48 hrs by Annexin V/Alexa Fuor 488/PI-staining based flow cytometric analysis (Rvb=4.4%); type: functional

Row | Compound | MIC [1] [µg/mL] | MIC ([2]; Mu50 ATCC 700699, 20 h) [µg/mL] | MIC ([3]; XJ 75302, 20 h) [µg/mL] | MIC ([4]; ATCC 29213, 20 h) [µg/mL] | IC50 [5] [µg/mL] | IC90 [5] [µg/mL] | IC50 [6] [µg/mL] | IC90 [6] [µg/mL] | IC50 [7] [µg/mL] | IC90 [7] [µg/mL] | viability at 5 µg/mL [8] [%] | Activity [9] [%] | Activity [10] [%] | fold change (FC) [11] | Activity [12] [%] | MIC [2] [µg/mL] | MIC [3] [µg/mL] | MIC [4] [µg/mL]
1 | CC(C)(O/N=C(\C(=O)N[C@@H]1C(=O)N2C(C(=O)[O-])=C(C[n+]3ccccc3)CS[C@H]12)c1csc(N)n1)C(=O)O [CEFTAZIDIME] | 64 (≈ 117 µM) | 256 (≈ 468 µM) | > 256 | > 8 |  |  |  |  |  |  |  |  |  |  |  |  |  | 
2 | CC1(C)CC(=O)C2=C(C1)OC(N)=C(C#N)C2c1ccccc1C#N (stereo not given) | > 256 | > 256 | > 256 | > 256 | 414 (≈ 1300 µM) | 814 (≈ 2550 µM) | 242 (≈ 757 µM) | 512 (≈ 1600 µM) | 249 (≈ 778 µM) | 503 (≈ 1580 µM) |  |  |  |  |  |  |  | 
3 | CCN1CCN(C(=O)N[C@@H](C(=O)N[C@@H]2C(=O)N3[C@@H]2SC(C)(C)[C@@H]3C(=O)O)c2ccccc2)C(=O)C1=O [PIPERACILLIN] | 8 (≈ 15.5 µM) | > 128 | > 128 | 2 (≈ 3.86 µM) |  |  |  |  |  |  |  |  |  |  |  |  |  | 
4 | C[C@H]1COc2c(N3CCN(C)CC3)c(F)cc3c(=O)c(C(=O)O)cn1c23.C[C@H]1COc2c(N3CCN(C)CC3)c(F)cc3c(=O)c(C(=O)O)cn1c23.O [LEVOFLOXACIN] | 8 | 4 | 4 | < 0.125 |  |  |  |  |  |  |  |  |  |  |  |  |  | 
5 | CC1(C)CC(=O)C2=C(C1)OC(N)=C(C#N)C2c1cccc(C(F)(F)F)c1 (stereo not given) | > 256 | > 256 | > 256 | > 256 | 388 (≈ 1070 µM) | 788 (≈ 2170 µM) | 248 (≈ 685 µM) | 503 (≈ 1390 µM) | 287 (≈ 791 µM) | 575 (≈ 1590 µM) |  |  |  |  |  |  |  | 
6 | N#CC1=C(N)Oc2c(c(=O)oc3ccccc23)C1c1ccc(Br)cc1 (stereo not given) | > 256 | > 256 | > 256 | > 256 | 140 (≈ 355 µM) | 274 (≈ 692 µM) | 176 (≈ 446 µM) | 328 (≈ 829 µM) | 96.2 (≈ 243 µM) | 172 (≈ 435 µM) |  |  |  |  |  |  |  | 
7 | O=c1oc2ccccc2c(O)c1C(c1ccc(Br)cc1)c1c(O)c2ccccc2oc1=O | 8 (≈ 16.3 µM) | 8 (≈ 16.3 µM) | 16 (≈ 32.6 µM) | 16 (≈ 32.6 µM) | 29.7 (≈ 60.5 µM) | 52.6 (≈ 107 µM) | 31.8 (≈ 64.7 µM) | 61.4 (≈ 125 µM) | 19.3 (≈ 39.2 µM) | 36.7 (≈ 74.7 µM) | 30.2 | 0.3 | 25.5 | >8 | 44 |  |  | 
8 | N#CC1=C(N)OC2=C(C(=O)CCC2)C1c1cc(F)cc(F)c1 (stereo not given) | > 256 | > 256 | > 256 | > 256 | 446 (≈ 1480 µM) | 824 (≈ 2730 µM) | 319 (≈ 1060 µM) | 624 (≈ 2060 µM) | 164 (≈ 543 µM) | 308 (≈ 1020 µM) |  |  |  |  |  |  |  | 
9 | CO/N=C(\C(=O)N[C@@H]1C(=O)N2C(C(=O)O)=C(CSc3nc(=O)c(O)nn3C)CS[C@H]12)c1csc(N)n1 [CEFTRIAXONE] | 32 (≈ 57.7 µM) | 256 (≈ 462 µM) | > 256 | 2 (≈ 3.61 µM) |  |  |  |  |  |  |  |  |  |  |  |  |  | 
10 | N#CC1=C(N)OC2=C(C(=O)CCC2)C1c1cccc(Br)c1 (stereo not given) | > 256 | > 256 | > 256 | > 256 | 281 (≈ 814 µM) | 543 (≈ 1570 µM) | 368 (≈ 1070 µM) | 704 (≈ 2040 µM) | 157 (≈ 455 µM) | 287 (≈ 830 µM) |  |  |  |  |  |  |  | 
11 | COc1ccc(C2C(C#N)=C(N)Oc3c2c(=O)oc2ccccc32)cc1OC (stereo not given) | > 256 | > 256 | > 256 | > 256 | 132 (≈ 352 µM) | 232 (≈ 618 µM) | 168 (≈ 448 µM) | 310 (≈ 825 µM) | 107 (≈ 283 µM) | 194 (≈ 516 µM) |  |  |  |  |  |  |  | 
12 | CC(C)(C)c1ccc(C(c2c(O)c3ccccc3oc2=O)c2c(O)c3ccccc3oc2=O)cc1 | 32 (≈ 68.3 µM) | 16 (≈ 34.2 µM) | 16 (≈ 34.2 µM) | 16 (≈ 34.2 µM) | 31.1 (≈ 66.5 µM) | 55.5 (≈ 119 µM) | 28 (≈ 59.7 µM) | 53.2 (≈ 113 µM) | 24.6 (≈ 52.4 µM) | 47.1 (≈ 101 µM) |  |  |  |  |  |  |  | 
13 | CC1(C)CC(=O)C2=C(C1)OC(N)=C(C#N)C2c1cccc(Oc2ccccc2)c1 (stereo not given) | > 256 | > 256 | > 256 | > 256 | 900 (≈ 2330 µM) | 1700 (≈ 4400 µM) | 383 (≈ 991 µM) | 759 (≈ 1960 µM) | 481 (≈ 1240 µM) | 927 (≈ 2400 µM) |  |  |  |  |  |  |  | 
14 | N#CC1=C(N)Oc2c(c(=O)oc3ccccc23)C1c1ccc(C#N)cc1 (stereo not given) | > 256 | > 256 | > 256 | > 256 | 121 (≈ 355 µM) | 221 (≈ 648 µM) | 150 (≈ 439 µM) | 286 (≈ 838 µM) | 115 (≈ 336 µM) | 208 (≈ 609 µM) |  |  |  |  |  |  |  | 
15 | O=c1oc2ccccc2c(O)c1C(c1ccc(F)c(Cl)c1)c1c(O)c2ccccc2oc1=O | 8 (≈ 17.2 µM) | 8 (≈ 17.2 µM) | 16 (≈ 34.4 µM) | 16 (≈ 34.4 µM) | 32.6 (≈ 70.1 µM) | 64.5 (≈ 139 µM) | 30.8 (≈ 66.2 µM) | 55.8 (≈ 120 µM) | 22.9 (≈ 49.3 µM) | 43.2 (≈ 92.9 µM) |  |  |  |  |  |  |  | 
16 | COc1cc(C2C(C#N)=C(N)OC3=C2C(=O)CCC3)ccc1O (stereo not given) | > 256 | > 256 | > 256 | > 256 | 208 (≈ 666 µM) | 399 (≈ 1280 µM) | 232 (≈ 744 µM) | 462 (≈ 1480 µM) | 114 (≈ 364 µM) | 219 (≈ 700 µM) |  |  |  |  |  |  |  | 
17 | GENTAMICIN | 0.25 |  |  |  |  |  |  |  |  |  |  |  |  |  |  | 32 | 64 | 0.12
